Source: ChEMBL document CHEMBL1240530, “Inhalation by design: novel ultra-long-acting β(2)-adrenoreceptor agonists for inhaled once-daily treatment of asthma and chronic obstructive pulmonary disease that utilize a sulfonamide agonist headgroup” (J Med Chem, 2010)

What was measured:
[1] = molecular target: Beta-2 adrenergic receptor (Homo sapiens, UniProt P07550); experiment: Agonist activity at human recombinant beta2 adrenergic receptor expressed in CHO cells assessed as elevation in cAMP level after 1 hr by flashplate method; format: functional, cell-based
[2] = Bronchodilatory activity in Dunkin-Hartley guinea pig trachea assessed as time taken for electrical filed stimulation-induced constrictive response to recover by 50%; format: functional, Cavia porcellus
Homo sapiens = organism: Homo sapiens; experiment: Selectivity ratio of EC50 for human recombinant beta-1 adrenergic receptor to EC50 for human recombinant beta2 adrenergic receptor
[3] = Distribution coefficient, log D of the compound; format: physicochemical; settings: octanol/water
Liver microsomes [4] = experiment: Intrinsic clearance in human liver microsome in presence of CYP3A4 inhibitor ketoconazole; format: ADME
[5] = Apparent permeability from apical to basolateral side of human Caco-2 cells; format: ADME, cell-based
Canis familiaris [6] = organism: Canis familiaris
Description: Bronchodilatory activity in itr dosed Beagle dog assessed as inhibition of acetylcholine-induced bronchoconstriction administered 5 doses of compound at cumulative 1 hr intervals

Liver microsomes [7] = experiment: Intrinsic clearance in human liver microsome; format: ADME
Canis familiaris [8] = experiment: Cardiotoxicity in itr dosed Beagle dog assessed as induction of trachycardia after 7.5 hrs; format: toxicity, organism-based, Canis lupus familiaris; settings: in vivo, inhaled_or_intranasal
[9] = Half life in iv dosed rat; format: ADME, organism-based; settings: in vivo
[10] = Plasma protein binding in iv dosed rat; format: ADME, organism-based; settings: read-out: PPB (converted)
[11] = Cmax in rat at 100 ug, it; format: ADME, organism-based; design: dose 100 ug; settings: in vivo, inhaled or intranasal
[12] = molecular target: Voltage-gated inwardly rectifying potassium channel KCNH2 (Homo sapiens, UniProt Q12809); experiment: Inhibition of human ERG by patch clamp technique
Liver microsomes [13] = experiment: Metabolic stability in human liver microsome; format: ADME
Oryctolagus cuniculus = organism: Oryctolagus cuniculus; experiment: Toxicity in rabbit Adelta-fibre firing model assessed as induction of postinhalation cough at 50 to 1000 ug, it; format: organism-based; settings: in vivo, inhaled_or_intranasal
Liver [14] = experiment: Unbound intrinsic clearance in rat liver; format: ADME, Microsome; settings: microsomes
Canis familiaris [15] = experiment: Bronchodilatory activity in itr dosed Beagle dog assessed as duration of blockade of acetylcholine-induced bronchoconstriction at 10 times ED50 administered as single dose prior to acetylcholine challenge
[16] = Apparent permeability from basolateral to apical side of human Caco-2 cells; format: ADME, cell-based
[17] = Volume of distribution in iv dosed rat; format: ADME, organism-based; settings: in vivo
[18] = Metabolic stability in rat bile assessed as compound remaining; format: ADME, tissue-based
in vivo = settings: beagle, dog, inhaled or intranasal
Description: Therapeutic index, ratio of dose inducing cardiovascular side effects to ED50 for inhibition of acetylcholine-induced bronchoconstriction in itr dosed Beagle dog

[19] = Total clearance in iv dosed rat; format: ADME, organism-based; settings: in vivo
Liver [20] = experiment: Intrinsic clearance in rat liver; format: ADME, Microsome; settings: microsomes
[21] = Oral bioavailability in rat; format: ADME, organism-based; settings: in vivo
Canis familiaris [22] = experiment: Bronchodilatory activity in itr dosed Beagle dog assessed as duration of blockade of acetylcholine-induced bronchoconstriction at ED50 administered as single dose prior to acetylcholine challenge
[23] = Tmax in rat at 100 ug, it; format: ADME, organism-based; settings: in vivo, inhaled or intranasal
[24] = Dissociation constant, pKa of the compound; format: physicochemical
Canis familiaris [25] = experiment: Cardiotoxicity in itr dosed Beagle dog assessed as increase in heart rate after 7.5 hrs; format: toxicity, organism-based, Canis lupus familiaris; settings: in vivo, inhaled_or_intranasal

Chain of Beta-2 adrenergic receptor (P07550 whole entry): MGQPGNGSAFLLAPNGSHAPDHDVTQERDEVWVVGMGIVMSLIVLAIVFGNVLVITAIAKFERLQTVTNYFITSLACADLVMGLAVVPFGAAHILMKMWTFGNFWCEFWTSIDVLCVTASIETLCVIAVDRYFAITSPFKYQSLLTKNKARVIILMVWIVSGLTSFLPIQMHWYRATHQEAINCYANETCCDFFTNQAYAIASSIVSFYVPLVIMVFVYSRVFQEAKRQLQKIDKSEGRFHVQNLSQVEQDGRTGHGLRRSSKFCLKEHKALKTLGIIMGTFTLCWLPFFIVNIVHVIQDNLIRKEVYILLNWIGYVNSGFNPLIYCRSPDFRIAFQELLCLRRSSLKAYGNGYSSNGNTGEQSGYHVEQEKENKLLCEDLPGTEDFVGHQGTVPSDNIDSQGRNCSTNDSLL
Chain of Voltage-gated inwardly rectifying potassium channel KCNH2 (Q12809 whole entry): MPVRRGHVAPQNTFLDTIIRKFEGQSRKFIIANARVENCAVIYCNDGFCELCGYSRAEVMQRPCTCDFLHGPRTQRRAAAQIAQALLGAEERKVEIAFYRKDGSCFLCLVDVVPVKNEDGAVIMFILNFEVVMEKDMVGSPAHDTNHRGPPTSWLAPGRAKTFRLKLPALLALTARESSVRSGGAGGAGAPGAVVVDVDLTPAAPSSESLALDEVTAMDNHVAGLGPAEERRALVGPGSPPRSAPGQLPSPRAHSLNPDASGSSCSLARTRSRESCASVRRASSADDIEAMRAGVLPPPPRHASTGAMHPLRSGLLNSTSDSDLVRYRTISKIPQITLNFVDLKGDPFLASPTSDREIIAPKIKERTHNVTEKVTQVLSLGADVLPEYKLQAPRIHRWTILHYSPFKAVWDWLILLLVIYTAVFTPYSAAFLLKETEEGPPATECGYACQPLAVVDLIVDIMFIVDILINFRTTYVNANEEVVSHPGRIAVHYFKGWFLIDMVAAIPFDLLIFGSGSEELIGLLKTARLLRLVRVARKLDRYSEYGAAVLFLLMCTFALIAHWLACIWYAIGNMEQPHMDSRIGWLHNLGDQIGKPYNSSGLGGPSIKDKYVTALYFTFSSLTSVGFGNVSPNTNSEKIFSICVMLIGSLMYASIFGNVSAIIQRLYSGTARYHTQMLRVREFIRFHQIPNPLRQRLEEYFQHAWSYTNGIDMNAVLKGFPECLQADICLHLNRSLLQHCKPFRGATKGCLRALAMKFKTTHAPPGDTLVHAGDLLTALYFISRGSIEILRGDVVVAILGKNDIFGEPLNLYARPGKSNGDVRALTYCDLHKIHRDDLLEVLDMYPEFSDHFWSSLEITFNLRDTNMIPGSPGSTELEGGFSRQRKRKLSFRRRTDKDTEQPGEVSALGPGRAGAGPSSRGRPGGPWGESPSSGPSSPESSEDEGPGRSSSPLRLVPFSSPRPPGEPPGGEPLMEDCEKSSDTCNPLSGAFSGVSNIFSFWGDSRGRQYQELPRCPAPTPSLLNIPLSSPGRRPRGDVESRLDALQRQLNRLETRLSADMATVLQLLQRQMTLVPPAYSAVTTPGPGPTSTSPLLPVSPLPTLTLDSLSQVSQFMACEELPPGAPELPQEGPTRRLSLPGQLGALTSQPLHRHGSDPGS

Question: Which EC50 [1] does the source give for `CC(C)(Cc1cccc(CC(=O)NCc2ccc(O)cc2Cl)c1)NC[C@H](O)c1ccc(O)c(NS(C)(=O)=O)c1` here?
Answer: 0.02 nM

Question: And the Time [2]?
Answer: 6.8 h

Question: What about the Ratio EC50 (Homo sapiens) of the same molecule?
Answer: 7300

Question: And the logD [3]?
Answer: 1.2

Question: Which EC50 [1] does the source give for `C[C@H](Cc1cccc(CC(=O)NCCc2ccccc2)c1)NC[C@H](O)c1ccc(O)c(NS(C)(=O)=O)c1` here?
Answer: 0.04 nM

Question: What about the Ratio EC50 (Homo sapiens) of the same molecule?
Answer: 1800

Question: For `CC(C)(Cc1cccc(CC(=O)NCc2cc(Cl)cc(Cl)c2O)c1)NC[C@H](O)c1ccc(O)c(NS(C)(=O)=O)c1`, which EC50 [1] is on record?
Answer: 0.13 nM

Question: And the Time [2]?
Answer: 8.02 h

Question: What about the Ratio EC50 (Homo sapiens) of the same molecule?
Answer: 560

Question: What about the logD [3] of the same molecule?
Answer: 2

Question: Which results are given for `CC(C)(Cc1cccc(CC(=O)NCc2cccc(-c3ccc(O)cc3)c2)c1)NC[C@H](O)c1ccc(O)c(NS(C)(=O)=O)c1` [PF-00610355]?
Answer: CL (Liver microsomes [4]): < 0.01 mL/min/kg; Papp A→B [5]: < 1 ×10⁻⁶ cm/s; ED50 (Canis familiaris [6]): 0.1 µg; CL (Liver microsomes [7]): 0.054 mL/min/kg; Activity (Canis familiaris [8]): Non-toxic; Time [2]: 6.23 h; half-life [9]: 3.5 h; fraction unbound [10]: 0.05; Ratio EC50 (Homo sapiens): 220; Cmax [11]: 1.3 nM; IC50 [12]: > 10000 nM; Stability (Liver microsomes [13]): 80%; Activity (Oryctolagus cuniculus): Non-toxic; logD [3]: 1.9; CL free (Liver [14]): > 10000 mL/min/kg; Time (Canis familiaris [15]): >8 h; Papp B→A [16]: 13 ×10⁻⁶ cm/s; Vd [17]: 31 L/kg; Stability [18]: 6%; selectivity ratio (in vivo): ≥ 10; clearance [19]: 103 mL/min/kg; CL (Liver [20]): 0.033 mL/min/kg; bioavailability [21]: < 5%; Time (Canis familiaris [22]): >8 h; Tmax [23]: 0.5 h

Question: Which results are given for `CC(C)(Cc1cccc(CC(=O)NCc2ccccc2)c1)NC[C@H](O)c1ccc(O)c(NS(C)(=O)=O)c1`?
Answer: EC50 [1]: 0.023 nM; Ratio EC50 (Homo sapiens): 7500

Question: What does the source list for `CC(C)(Cc1cccc(CC(=O)NCc2ccc3cc(O)ccc3c2)c1)NC[C@H](O)c1ccc(O)c(NS(C)(=O)=O)c1`?
Answer: EC50 [1]: 0.21 nM; Time [2]: 6.17 h; Ratio EC50 (Homo sapiens): 730; logD [3]: 1.3

Question: Which results are given for `C[C@H](Cc1cccc(CC(=O)NCc2ccccc2)c1)NC[C@H](O)c1ccc(O)c(NS(C)(=O)=O)c1`?
Answer: EC50 [1]: 0.027 nM; Time [2]: 3.24 h; Ratio EC50 (Homo sapiens): 16000; logD [3]: 1

Question: For `CCN(Cc1ccc(O)cc1Cl)C(=O)Cc1cccc(CC(C)(C)NC[C@H](O)c2ccc(O)c(NS(C)(=O)=O)c2)c1`, which EC50 [1] is on record?
Answer: 0.37 nM

Question: And the Time [2]?
Answer: 8.49 h

Question: And the Ratio EC50 (Homo sapiens)?
Answer: 210

Question: And the logD [3]?
Answer: 1.6

Question: With `CC(C)(Cc1cccc(CC(=O)NCc2ccc(-c3ccc(O)cc3)cc2)c1)NC[C@H](O)c1ccc(O)c(NS(C)(=O)=O)c1` as the molecule, how does the Time [2] read?
Answer: 6.57 h

Question: What about the Ratio EC50 (Homo sapiens) of the same molecule?
Answer: 1300

Question: For `CC(C)(Cc1cccc(CC(=O)NCc2cc(Cl)ccc2O)c1)NC[C@H](O)c1ccc(O)c(NS(C)(=O)=O)c1`, which EC50 [1] is on record?
Answer: 0.17 nM

Question: And the Time [2]?
Answer: 6 h

Question: What about the Ratio EC50 (Homo sapiens) of the same molecule?
Answer: 7000

Question: What about the logD [3] of the same molecule?
Answer: 1.6

Question: And the pKa [24]?
Answer: 9.22

Question: Which Time [2] does the source give for `CC(C)(Cc1ccccc1)NCC(O)c1ccc(O)c(NS(C)(=O)=O)c1` (stereo not given) [ZINTEROL] here?
Answer: 3.4 h

Question: And the logD [3]?
Answer: 0.6

Question: For `C[C@H](Cc1cccc(CC(=O)NCCCc2ccccc2)c1)NC[C@H](O)c1ccc(O)c(NS(C)(=O)=O)c1`, which EC50 [1] is on record?
Answer: 0.042 nM

Question: What about the Time [2] of the same molecule?
Answer: 5.85 h

Question: What about the Ratio EC50 (Homo sapiens) of the same molecule?
Answer: 3400

Question: And the logD [3]?
Answer: 1.7

Question: For `OCc1cc(C(O)CNCCCCCCOCCCCc2ccccc2)ccc1O` (stereo not given) [SALMETEROL], which ED50 (Canis familiaris [6]) is on record?
Answer: 1 µg

Question: And the Time [2]?
Answer: 6.97 h

Question: What about the Time (Canis familiaris [15]) of the same molecule?
Answer: <7 h

Question: What about the Time (Canis familiaris [22]) of the same molecule?
Answer: 4 h

Question: What about the Activity (Canis familiaris [25]) of the same molecule?
Answer: Toxic

Question: For `CC(C)(Cc1cccc(CC(=O)NCc2ccc(Cl)c(Cl)c2)c1)NC[C@H](O)c1ccc(O)c(NS(C)(=O)=O)c1`, which EC50 [1] is on record?
Answer: 0.066 nM

Question: And the Time [2]?
Answer: 8.34 h

Question: What about the Ratio EC50 (Homo sapiens) of the same molecule?
Answer: 1700

Question: What about the logD [3] of the same molecule?
Answer: 2.4

Question: Which EC50 [1] does the source give for `CC(C)(Cc1cccc(CC(=O)NCc2cc(Cl)c(O)c(Cl)c2)c1)NC[C@H](O)c1ccc(O)c(NS(C)(=O)=O)c1` here?
Answer: 0.091 nM

Question: What about the Time [2] of the same molecule?
Answer: 3.66 h

Question: What about the Ratio EC50 (Homo sapiens) of the same molecule?
Answer: 1600

Question: And the logD [3]?
Answer: 0.8

Question: What about the pKa [24] of the same molecule?
Answer: 6.69

Question: With `C[C@H](Cc1cccc(CC(=O)NC23CC4CC(CC(C4)C2)C3)c1)NC[C@H](O)c1ccc(O)c(CO)c1` as the molecule, how does the EC50 [1] read?
Answer: 0.064 nM

Question: What about the Time [2] of the same molecule?
Answer: 6.35 h

Question: And the Ratio EC50 (Homo sapiens)?
Answer: 1300

Question: Which EC50 [1] does the source give for `Cc1ccc(CNC(=O)Cc2cccc(C[C@@H](C)NC[C@H](O)c3ccc(O)c(NS(C)(=O)=O)c3)c2)cc1C` here?
Answer: 0.056 nM

Question: What about the Time [2] of the same molecule?
Answer: 6.74 h

Question: And the Ratio EC50 (Homo sapiens)?
Answer: 3700

Question: What about the logD [3] of the same molecule?
Answer: 2

Question: Which EC50 [1] does the source give for `CCOc1ccccc1CNC(=O)Cc1cccc(C[C@@H](C)NC[C@H](O)c2ccc(O)c(NS(C)(=O)=O)c2)c1` here?
Answer: 0.048 nM

Question: What about the Time [2] of the same molecule?
Answer: 6.2 h

Question: And the Ratio EC50 (Homo sapiens)?
Answer: 3300

Question: What about the logD [3] of the same molecule?
Answer: 1.6

Question: Which ED50 (Canis familiaris [6]) does the source give for `COc1cccc(OC)c1CNC(=O)c1cc2cc(C[C@@H](C)NC[C@H](O)c3ccc(O)c(CO)c3)ccc2[nH]1` here?
Answer: 1 µg

Question: What about the Time (Canis familiaris [15]) of the same molecule?
Answer: >8 h

Question: What about the selectivity ratio (in vivo) of the same molecule?
Answer: 10

Question: What about the Time (Canis familiaris [22]) of the same molecule?
Answer: >8 h

Question: For `C[C@H](Cc1cccc(CC(=O)NCc2ccc(Cl)c(Cl)c2)c1)NC[C@H](O)c1ccc(O)c(CO)c1`, which Time [2] is on record?
Answer: 9 h

Question: What about the Ratio EC50 (Homo sapiens) of the same molecule?
Answer: 5300

Question: For `Cc1cc(O)cc(C)c1CNC(=O)Cc1cccc(CC(C)(C)NC[C@H](O)c2ccc(O)c(NS(C)(=O)=O)c2)c1`, which EC50 [1] is on record?
Answer: 0.045 nM

Question: And the Time [2]?
Answer: 4.59 h

Question: And the Ratio EC50 (Homo sapiens)?
Answer: 3700

Question: What about the logD [3] of the same molecule?
Answer: 1.1

Question: What about the pKa [24] of the same molecule?
Answer: 9.93

Question: With `C[C@H](Cc1cccc(CC(=O)NCC2CCCCC2)c1)NC[C@H](O)c1ccc(O)c(NS(C)(=O)=O)c1` as the molecule, how does the EC50 [1] read?
Answer: 0.032 nM

Question: What about the Time [2] of the same molecule?
Answer: 5.79 h

Question: What about the Ratio EC50 (Homo sapiens) of the same molecule?
Answer: 3100

Question: For `COc1ccccc1CNC(=O)Cc1cccc(C[C@@H](C)NC[C@H](O)c2ccc(O)c(NS(C)(=O)=O)c2)c1`, which EC50 [1] is on record?
Answer: 0.04 nM

Question: And the Time [2]?
Answer: 4.22 h

Question: What about the Ratio EC50 (Homo sapiens) of the same molecule?
Answer: 5600

Question: What about the logD [3] of the same molecule?
Answer: 1.2
